Reference: patent publication EP4748840A1, “IMIDAZO[1,2-A]PYRIDINE TYPE IRAK DEGRADATION AGENT AND USE THEREOF” (TAINUORUI (TIANJIN) BIOTECHNOLOGY CO., LTD, priority 2023, dated 2025)

Key:
IRAK4 = biological target: T1, IRAK4 (Homo sapiens, UniProt Q9NWZ3); experiment: HiBiT-based intracellular degradation assay of THP1-HIBiT-IRAK4 cells; type: cell-based; details: half-maximal degradation concentration of IRAK4 protein, 24 h incubation
T1 construct: expressed in transfected cells; host or cells: THP1 (THP1-HIBiT-IRAK4 engineered line)
T1 sequence (Q9NWZ3 1-460): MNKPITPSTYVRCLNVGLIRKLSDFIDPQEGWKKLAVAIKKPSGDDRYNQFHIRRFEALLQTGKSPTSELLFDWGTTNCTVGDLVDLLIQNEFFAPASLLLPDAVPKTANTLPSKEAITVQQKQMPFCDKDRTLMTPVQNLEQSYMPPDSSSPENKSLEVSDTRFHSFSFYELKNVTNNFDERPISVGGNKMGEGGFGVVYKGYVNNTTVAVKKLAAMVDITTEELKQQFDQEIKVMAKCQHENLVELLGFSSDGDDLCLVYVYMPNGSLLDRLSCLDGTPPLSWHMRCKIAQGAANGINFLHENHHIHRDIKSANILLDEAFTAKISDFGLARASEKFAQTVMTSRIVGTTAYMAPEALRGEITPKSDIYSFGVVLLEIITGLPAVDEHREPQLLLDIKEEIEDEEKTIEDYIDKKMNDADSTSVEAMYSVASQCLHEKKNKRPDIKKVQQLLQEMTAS
Protocol: HiBiT-based intracellular degradation assay of THP1-HIBiT-IRAK4 cells
THP1-HIBiT-IRAK4 cells were cultured in RPMI 1640 medium supplemented with 10% fetal bovine serum (FBS) and 1% penicillin-streptomycin (PS) (37°C and 5% CO2). The THP1-HIBiT-IRAK4 cells were inoculated in a 384-well plate at 5000 cells/40 µL/well. Compound solutions with different concentrations were added at 40 nL/well and incubated for 24 h at 37°C in 5% CO2. HiBiT lysis detection reagents were added to the wells, the plate was incubated for 30 min at room temperature, and luminescence values were read on Envision. [formula]
The DC50 (half-maximal degradation concentration) of each compound was obtained using XLfit software and the following nonlinear fitting equation: Y = bottom + (top−bottom)/(1+10^(∧)((LogDC50−X)×Hillslope)). [formula]
X denotes a log value of the compound concentration.
Y denotes the degradation rate.
Table 1 lists the results of DC50 values of IRAK4 protein degradation. […]

[1] = In vivo pharmacokinetic study in mice; details: male CD1 mice
Protocol: In vivo pharmacokinetic study
The pharmacokinetic behaviors of Example 1 and Example 15 in mice were studied using the following experimental protocol to evaluate their pharmacokinetic characteristics.
The mice had free access to food and water before the test.
(§1) Approximately 0.03 mL of venous blood was collected from the dorsal metatarsal vein of each mouse separately after 0.033 h, 0.083 h, 0.25 h, 0.5 h, 1 h, 2 h, 4 h, 8 h, and 24 h since intravenous injection. The blood was placed in an EDTA-K2 tube and centrifuged for 5 min at 4000 g and 4°C. The plasma was separated. The concentration of the compound in the plasma was determined through liquid chromatography-tandem mass spectrometry.
as §1, with “after” for “after 0.033 h,”, “oral administration.” for “intravenous injection.”

[2] = mouse, plasma, Intravenous Injection (2 mg/kg)

| SMILES | DC50 (IRAK4) | further results |
| --- | --- | --- |
| CC(C)(O)c1cc2nc(C3CCN(CC4CCN(c5ccc6c(c5)C(=O)N(C5CCC(=O)NC5=O)C6=O)CC4)CC3)cn2cc1NC(=O)c1cccc(C(F)(F)F)n1 (stereo not shown) [Example 1] | 4.53 nM | F ([1]; oral bioavailability, Oral Administration (20 mg/kg) vs Intravenous Injection (2 mg/kg)): 12.1%; clearance [1, 2]: 59.5 mL/min/kg; half-life [1, 2]: 7.88 h; half-life ([1]; mouse, plasma, Oral Administration (20 mg/kg)): 6.81 h; AUC(0-t) ([1]; mouse, Intravenous Injection (2 mg/kg), plasma): 550 ng·h/mL; AUC(0-t) ([1]; mouse, Oral Administration (20 mg/kg), plasma): 626 ng·h/mL |
| CC(C)(O)c1cc2nc(C3CCN(CCC4CCN(c5ccc6c(c5)C(=O)N(C5CCC(=O)NC5=O)C6=O)CC4)CC3)cn2cc1NC(=O)c1cccc(C(F)(F)F)n1 (stereo not shown) [Example 18, N-(2-(1-(2-(1-(2-(2,6-dioxopiperidin-3-yl)-1,3-dioxoisoindolin-5-yl)piperidin-4-yl)ethyl)piperidin-4-yl)-7-(2-hydroxypropan-2-yl)imidazo[1,2-a]pyridin-6-yl)-6-(trifluoromethyl)pyridine-2-carboxamide] | 4.29 nM |  |
| CC(C)(O)c1cc2nc(C3CCN(CCCN4CCN(c5ccc6c(c5)C(=O)N(C5CCC(=O)NC5=O)C6=O)CC4)CC3)cn2cc1NC(=O)c1cccc(C(F)(F)F)n1 (stereo not shown) [Example 19, N-(2-(1-(3-(4-(2-(2,6-dioxopiperidin-3-yl)-1,3-dioxoisoindolin-5-yl)piperazin-1-yl)propyl)piperidin-4-yl)-7-(2-hydroxypropan-2-yl)imidazo[1,2-a]pyridin-6-yl)-6-(trifluoromethyl)pyridine-2-carboxamide] | 1.95 nM |  |
| CC(C)(O)c1cc2nc(C3CCN(C4CN(C5CCN(c6ccc7c(c6)C(=O)N(C6CCC(=O)NC6=O)C7=O)CC5)C4)CC3)cn2cc1NC(=O)c1cccc(C(F)(F)F)n1 (stereo not shown) [Example 20, N-(2-(1-(1-(1-(2-(2,6-dioxopiperidin-3-yl)-1,3-dioxoisoindolin-5-yl)piperidin-4-yl)azetidin-3-yl)piperidin-4-yl)-7-(2-hydroxypropan-2-yl)imidazo[1,2-a]pyridin-6-yl)-6-(trifluoromethyl)pyridine-2-carboxamide] | 1.35 nM |  |
| CC(C)(O)c1cc2nc(C3CCN(CCN4CC5(C4)CN(c4ccc6c(c4)C(=O)N(C4CCC(=O)NC4=O)C6=O)C5)CC3)cn2cc1NC(=O)c1cccc(C(F)(F)F)n1 (stereo not shown) [Example 21, N-(2-(1-(2-(6-(2-(2,6-dioxopiperidin-3-yl)-1,3-dioxoisoindolin-5-yl)-2,6-diazaspiro[3.3]heptan-2-yl)ethyl)piperidin-4-yl)-7-(2-hydroxypropan-2-yl)imidazo[1,2-a]pyridin-6-yl)-6-(trifluoromethyl)pyridine-2-carboxamide] | 2.3 nM |  |
| CC(C)(O)c1cc2nc(C3CCN(CCN4CCN(c5cc6c(cc5F)C(=O)N(C5CCC(=O)NC5=O)C6=O)CC4)CC3)cn2cc1NC(=O)c1cccc(C(F)(F)F)n1 (stereo not shown) [Example 22, N-(2-(1-(2-(4-(2-(2,6-dioxopiperidin-3-yl)-6-fluoro-1,3-dioxoisoindolin-5-yl)piperazin-1-yl)ethyl)piperidin-4-yl)-7-(2-hydroxypropan-2-yl)imidazo[1,2-a]pyridin-6-yl)-6-(trifluoromethyl)pyridine-2-carboxamide] | 4.76 nM |  |
| CC(C)(O)c1cc2nc(C3CCN(CC4CCN(c5cc6c(cc5F)C(=O)N(C5CCC(=O)NC5=O)C6)CC4)CC3)cn2cc1NC(=O)c1cccc(C(F)(F)F)n1 (stereo not shown) [Example 23, N-(2-(1-((1-(2-(2,6-dioxopiperidin-3-yl)-6-fluoro-1-oxoisoindolin-5-yl)piperidin-4-yl)methyl)piperidin-4-yl)-7-(2-hydroxypropan-2-yl)imidazo[1,2-a]pyridin-6-yl)-6-(trifluoromethyl) pyridine-2-carboxamide] | 0.95 nM |  |
| CC(C)(O)c1cc2nc(C3CCN(CC4C5CN(c6ccc7c(c6)C(=O)N(C6CCC(=O)NC6=O)C7=O)CC45)CC3)cn2cc1NC(=O)c1cccc(C(F)(F)F)n1 (stereo not shown) [Example 24, N-(2-(1-((3-(2-(2,6-dioxopiperidin-3-yl)-1,3-dioxoisoindolin-5-yl)-3-azabicyclo[3.1.0]hexan-6-yl)methyl)piperidin-4-yl)-7-(2-hydroxypropan-2-yl)imidazo[1,2-a]pyridin-6-yl)-6-(trifluoromethyl)pyridine-2-carboxamide] | 1.87 nM |  |
| CC(C)(O)c1cc2nc(C3CCN(CC4CCN(c5cc6c(cc5F)C(=O)N([C@@H]5CCC(=O)NC5=O)C6=O)CC4)CC3)cn2cc1NC(=O)c1cccc(C(F)(F)F)n1 [Example 25, (R)-N-(2-(1-((1-(2-(2,6-dioxopiperidin-3-yl)-6-fluoro-1,3-dioxoisoindolin-5-yl)piperidin-4-yl)methyl)piperidin-4-yl)-7-(2-hydroxypropan-2-yl)imidazo[1,2-a]pyridin-6-yl)-6-(trifluoromethyl)pyridine-2-carboxamide] | 12.8 nM |  |
| CC(C)(O)c1cc2nc(C3CCN(CC4CCN(c5cc6c(cc5F)C(=O)N([C@H]5CCC(=O)NC5=O)C6=O)CC4)CC3)cn2cc1NC(=O)c1cccc(C(F)(F)F)n1 [Example 26, (S)-N-(2-(1-((1-(2-(2,6-dioxopiperidin-3-yl)-6-fluoro-1,3-dioxoisoindolin-5-yl)piperidin-4-yl)methyl)piperidin-4-yl)-7-(2-hydroxypropan-2-yl)imidazo[1,2-a]pyridin-6-yl)-6-(trifluoromethyl)pyridine-2-carboxamide] | 2.15 nM |  |
